Reference: patent US8207216B2, “Benzofuran-3-yl(indol-3-yl) maleimides as potent GSK3 inhibitors” (The Board of Trustees of the University of Illinois, priority 2006, dated 2012)

What was measured:
[1] = target: T1, recombinant human His6-GSK-3β (Homo sapiens, UniProt P49841); test: GSK-3β kinase assay, [γ32P] transfer to primed glycogen synthase peptide; assay type: biochemical; settings: 10 μM ATP; 10 μM pGSM peptide; 30 minutes at 30° C.; read-out: IC50 (nM), GSK-3β inhibition;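 further: phosphate incorporation quantified by liquid scintillation counting of the filters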
T1 construct: His6; purchased EMD Biosciences

CDK-1/cyclinB = CDK-1/cyclinB (Homo sapiens, UniProt P06493); test: CDK panel (Reaction Biology); assay type: biochemical; settings: tested at Reaction Biology, Inc.
[2] = tested on: M-17 cancer cells co-transfected with α-Syn and DAT; test: Neuroprotection against MPP+-mediated cell death, MTT assay; assay type: cell-based; settings: MPP+ 48 h, inhibitor 0.1-10,000 nM
Description: GSK-3β inhibitors are examined for their capacity to interfere with two of the regulated processes playing an important role in the MPP+-induced model (MPP+ is N-methyl-4-phenylpyridinium) of neurodegeneration: Tau phosphorylation at the PHF-1 binding site (PHF-Tau; epitope which belongs to AD-like Tau antigenicity) and α-Syn-induced toxicity. Compounds are screened in in vitro assays, where their neuroprotective effects to protect against MPP+-mediated cell death was estimated. The cell assays are conducted as follows: M-17 cancer cells are co-transfected with α-Syn and DAT at a 3:1 DNA mimicking that found in Substantia nigra ratio, as we have described previously (Wersinger, C., et al The FASEB journal 2003, 17, 2151-2153). Cells are treated with MPP^+ for 48 h in the absence and presence of increasing amounts of GSK-3β inhibitors [0.1-10,000 nM], and cell death was measured by MTT (Thiazolyl Blue Tetrazolium Bromide) assays. Under these conditions, MPP^+ caused ˜80% cell death.

CDK-2/cyclinA = CDK-2/cyclinA (Homo sapiens, UniProt P24941); test: CDK panel (Reaction Biology); assay type: biochemical; settings: tested at Reaction Biology, Inc.
CDK-9/cyclinT1 = CDK-9/cyclinT1 (Homo sapiens, UniProt P50750); test: CDK panel (Reaction Biology); assay type: biochemical; settings: tested at Reaction Biology, Inc.
CDK-3/cyclinE = CDK-3/cyclinE (Homo sapiens, UniProt Q00526); test: biochemical
CDK-5/P35 = CDK-5/P35 (Homo sapiens, UniProt Q00535); test: CDK panel (Reaction Biology); assay type: biochemical; settings: tested at Reaction Biology, Inc.
SKOV3 = test: Antiproliferation assay, ovarian cancer cells; assay type: cell-based; settings: Homo sapiens, SK-OV-3; ovarian cancer cell proliferation
Experimental: (§1) The pancreatic cancer cell lines BxPc-3, HupT3, MiaPaCa-2, Panc 04.03, and SU86.86 were obtained from ATCC (Rockville, Md.) and were grown in medium (DMEM or RPMI) containing 10% fetal calf serum and L-glutamine. Pancreatic cancer cells were plated out in duplicate into 6-wells of a 96-well microtiter plate at 2.5−4×10^3 cells per well. Four-hours post plating, individual wells were treated with diluent (DMSO) or varying concentrations of commercial compounds, AR-A014418 and SB216763, or the indicated GSK inhibitors of this invention from a concentration of 1 nM to 50 microM. […] The IC50s were calculated using XLfit (IDBS Limited, Guildford, UK).
(§2) Similar antiproliferation assays were performed using ovarian cancer cells. Compound 40 is of particular interest for inhibition of ovarian cancer cell proliferation.

OVCA432 = test: Antiproliferation assay, ovarian cancer cells; assay type: cell-based; settings: ovarian cancer cell proliferation
Experimental: as §1, §2

CDK-6/cyclinD3 = CDK-6/cyclinD3 (Homo sapiens, UniProt Q00534); test: CDK panel (Reaction Biology); assay type: biochemical; settings: tested at Reaction Biology, Inc.
CDK-2/cyclinE = CDK-2/cyclinE (Homo sapiens, UniProt P24941); test: CDK-2/CyclinE inhibition (Reaction Biology); assay type: biochemical; settings: tested at Reaction Biology, Inc.
CDK-5/P25 = CDK-5/P25 (Homo sapiens, UniProt Q00535); test: CDK panel (Reaction Biology); assay type: biochemical; settings: tested at Reaction Biology, Inc.
CDK-4/cyclinD1 = CDK-4/cyclinD1 (Homo sapiens, UniProt P11802); test: CDK panel (Reaction Biology); assay type: biochemical; settings: tested at Reaction Biology, Inc.
Flt-3 = Flt-3 (Homo sapiens, UniProt P36888); test: Kinase panel (Novartis); assay type: biochemical
c-Abl-T3151 = c-Abl-T3151 (Homo sapiens, UniProt P00519, T315I); test: Kinase panel (Novartis); assay type: biochemical
JAK-2 = JAK-2 (Homo sapiens, UniProt O60674); test: Kinase panel (Novartis); assay type: biochemical
HupT3 = test: Antiproliferation MTS assay, pancreatic cancer cells; assay type: cell-based; settings: Homo sapiens, HuP-T3, as reported in Gaisina et al. (2009) J. Med. Chem. 52(7), 1853-1863
C57BL/6J mice = test: Amphetamine/chlordiazepoxide hyperactivity model of mania, open field locomotor activity; assay type: in vivo; settings: 5-ING-135 50 mg/kg, 5 min pretreatment; amphetamine 4 mg/kg + chlordiazepoxide 2.5 mg/kg; 60 min
Experimental: Hyperactivity models are often used to mimic the mania associated with bipolar disorder.
Certain benzofuran-based ligands of this invention were studied in a novel mouse model of mania that has recently been validated with several clinically effective mood stabilizers. […] Mice were then injected with amphetamine (4 mg/kg) or amphetamine (4 mg/kg) and chlordiazepoxide (2.5 mg/kg) and locomotor activity was monitored for 60 min. The open field is a square box surrounded by an array of infra-red beams and their behavior is automatically recorded for 60 minutes in the open field test chamber (10.75″×10.75″×8″H with infra-red (I/R) array, model ENV 510, MED Associates). After this period the animals were returned to their home cages and then to the main colony.
Control treatments are as indicated. FIG. 1B illustrates similar locomotion activity data of treated mice measured in cm over 5 minute intervals for 60 minutes.

Ret = Ret (Homo sapiens, UniProt P07949); test: Kinase panel (Novartis); assay type: biochemical
Sequence of Ret (P07949 29-1114, species assumed): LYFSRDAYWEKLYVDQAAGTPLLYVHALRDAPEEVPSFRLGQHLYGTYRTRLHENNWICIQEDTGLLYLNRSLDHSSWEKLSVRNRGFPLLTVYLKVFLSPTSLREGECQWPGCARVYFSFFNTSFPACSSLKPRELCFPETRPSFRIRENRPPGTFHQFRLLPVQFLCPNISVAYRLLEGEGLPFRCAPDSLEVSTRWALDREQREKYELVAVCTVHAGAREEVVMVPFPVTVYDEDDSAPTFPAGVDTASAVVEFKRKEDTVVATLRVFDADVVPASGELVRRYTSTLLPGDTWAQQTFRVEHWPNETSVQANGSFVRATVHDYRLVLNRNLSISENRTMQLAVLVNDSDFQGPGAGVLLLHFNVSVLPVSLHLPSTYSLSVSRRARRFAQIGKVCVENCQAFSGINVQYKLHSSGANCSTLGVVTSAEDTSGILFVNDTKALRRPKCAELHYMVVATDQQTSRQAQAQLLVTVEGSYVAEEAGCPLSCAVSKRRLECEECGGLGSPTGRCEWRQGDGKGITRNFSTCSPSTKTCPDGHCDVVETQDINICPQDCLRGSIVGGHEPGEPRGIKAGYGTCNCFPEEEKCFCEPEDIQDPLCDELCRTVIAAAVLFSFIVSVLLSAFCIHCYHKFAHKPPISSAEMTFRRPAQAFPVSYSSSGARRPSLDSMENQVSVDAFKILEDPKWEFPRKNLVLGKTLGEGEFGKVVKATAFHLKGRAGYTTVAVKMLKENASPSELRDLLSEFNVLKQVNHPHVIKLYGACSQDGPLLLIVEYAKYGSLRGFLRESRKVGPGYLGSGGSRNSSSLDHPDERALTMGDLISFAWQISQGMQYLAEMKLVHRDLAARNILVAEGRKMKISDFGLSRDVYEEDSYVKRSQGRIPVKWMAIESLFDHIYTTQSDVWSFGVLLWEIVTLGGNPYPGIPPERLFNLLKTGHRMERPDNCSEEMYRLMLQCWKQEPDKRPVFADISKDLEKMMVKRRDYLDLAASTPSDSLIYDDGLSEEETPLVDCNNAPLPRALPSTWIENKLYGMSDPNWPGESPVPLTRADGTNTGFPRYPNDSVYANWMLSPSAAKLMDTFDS

EphB4 = EphB4 (Homo sapiens, UniProt P54760); test: Kinase panel (Novartis); assay type: biochemical
b-Raf-V599E = b-Raf-V599E (Homo sapiens, UniProt P15056, V600E); test: Kinase panel (Novartis); assay type: biochemical
c-Abl = c-Abl (Homo sapiens, UniProt P00519); test: Kinase panel (Novartis); assay type: biochemical
FAK = FAK (Homo sapiens, UniProt Q05397); test: Kinase panel (Novartis); assay type: biochemical
PKCα = PKCα (Homo sapiens, UniProt P17252); test: Kinase panel (Novartis); assay type: biochemical
Tek = Tek (Homo sapiens, UniProt Q02763); test: Kinase panel (Novartis); assay type: biochemical
[3] = Passage of the brain-blood barrier in animal models; assay type: in vivo; settings: as assessed in animal models
Axl = Axl (Homo sapiens, UniProt P30530); test: Kinase panel (Novartis); assay type: biochemical
HER-1 = HER-1 (Homo sapiens, UniProt P00533); test: Kinase panel (Novartis); assay type: biochemical
Sequence of HER-1 (P00533 25-1210, species assumed): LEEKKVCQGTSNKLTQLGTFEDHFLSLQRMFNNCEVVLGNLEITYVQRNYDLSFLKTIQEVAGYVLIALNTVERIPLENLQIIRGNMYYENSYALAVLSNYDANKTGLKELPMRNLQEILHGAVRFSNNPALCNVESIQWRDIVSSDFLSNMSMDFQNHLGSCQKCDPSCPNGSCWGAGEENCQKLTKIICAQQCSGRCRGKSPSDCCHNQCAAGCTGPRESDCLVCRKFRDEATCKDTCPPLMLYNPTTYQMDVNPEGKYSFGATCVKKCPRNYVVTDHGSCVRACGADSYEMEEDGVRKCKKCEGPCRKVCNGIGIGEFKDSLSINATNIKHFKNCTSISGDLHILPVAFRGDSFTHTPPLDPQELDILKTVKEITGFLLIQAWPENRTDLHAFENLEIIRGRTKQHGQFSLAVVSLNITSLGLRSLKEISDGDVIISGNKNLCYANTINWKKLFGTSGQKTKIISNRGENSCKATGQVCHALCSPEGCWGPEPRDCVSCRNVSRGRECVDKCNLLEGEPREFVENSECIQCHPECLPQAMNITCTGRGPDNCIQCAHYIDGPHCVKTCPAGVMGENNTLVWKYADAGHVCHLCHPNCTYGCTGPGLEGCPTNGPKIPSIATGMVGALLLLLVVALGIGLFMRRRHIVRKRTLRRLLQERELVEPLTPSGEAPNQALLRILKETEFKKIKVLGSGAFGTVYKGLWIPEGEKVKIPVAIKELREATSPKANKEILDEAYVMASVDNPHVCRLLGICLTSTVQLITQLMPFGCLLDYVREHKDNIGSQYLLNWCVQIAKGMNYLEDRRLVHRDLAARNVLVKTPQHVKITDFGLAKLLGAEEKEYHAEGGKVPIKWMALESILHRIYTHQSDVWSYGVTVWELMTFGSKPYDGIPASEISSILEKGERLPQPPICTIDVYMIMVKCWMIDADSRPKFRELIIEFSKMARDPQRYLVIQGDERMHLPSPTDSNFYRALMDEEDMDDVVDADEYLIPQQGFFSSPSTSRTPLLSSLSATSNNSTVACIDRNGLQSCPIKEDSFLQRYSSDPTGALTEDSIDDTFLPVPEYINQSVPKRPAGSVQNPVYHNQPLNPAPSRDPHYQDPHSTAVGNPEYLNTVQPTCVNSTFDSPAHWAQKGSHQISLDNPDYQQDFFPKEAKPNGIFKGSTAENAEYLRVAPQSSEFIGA

FGFR-3-K650E = FGFR-3-K650E (Homo sapiens, UniProt P22607, K650E); test: Kinase panel (Novartis); assay type: biochemical
c-src = c-src (Homo sapiens, UniProt P12931); test: Kinase panel (Novartis); assay type: biochemical
KDR = KDR (Homo sapiens, UniProt P35968); test: Kinase panel (Novartis); assay type: biochemical
Sequence of KDR (P35968 20-1356, species assumed): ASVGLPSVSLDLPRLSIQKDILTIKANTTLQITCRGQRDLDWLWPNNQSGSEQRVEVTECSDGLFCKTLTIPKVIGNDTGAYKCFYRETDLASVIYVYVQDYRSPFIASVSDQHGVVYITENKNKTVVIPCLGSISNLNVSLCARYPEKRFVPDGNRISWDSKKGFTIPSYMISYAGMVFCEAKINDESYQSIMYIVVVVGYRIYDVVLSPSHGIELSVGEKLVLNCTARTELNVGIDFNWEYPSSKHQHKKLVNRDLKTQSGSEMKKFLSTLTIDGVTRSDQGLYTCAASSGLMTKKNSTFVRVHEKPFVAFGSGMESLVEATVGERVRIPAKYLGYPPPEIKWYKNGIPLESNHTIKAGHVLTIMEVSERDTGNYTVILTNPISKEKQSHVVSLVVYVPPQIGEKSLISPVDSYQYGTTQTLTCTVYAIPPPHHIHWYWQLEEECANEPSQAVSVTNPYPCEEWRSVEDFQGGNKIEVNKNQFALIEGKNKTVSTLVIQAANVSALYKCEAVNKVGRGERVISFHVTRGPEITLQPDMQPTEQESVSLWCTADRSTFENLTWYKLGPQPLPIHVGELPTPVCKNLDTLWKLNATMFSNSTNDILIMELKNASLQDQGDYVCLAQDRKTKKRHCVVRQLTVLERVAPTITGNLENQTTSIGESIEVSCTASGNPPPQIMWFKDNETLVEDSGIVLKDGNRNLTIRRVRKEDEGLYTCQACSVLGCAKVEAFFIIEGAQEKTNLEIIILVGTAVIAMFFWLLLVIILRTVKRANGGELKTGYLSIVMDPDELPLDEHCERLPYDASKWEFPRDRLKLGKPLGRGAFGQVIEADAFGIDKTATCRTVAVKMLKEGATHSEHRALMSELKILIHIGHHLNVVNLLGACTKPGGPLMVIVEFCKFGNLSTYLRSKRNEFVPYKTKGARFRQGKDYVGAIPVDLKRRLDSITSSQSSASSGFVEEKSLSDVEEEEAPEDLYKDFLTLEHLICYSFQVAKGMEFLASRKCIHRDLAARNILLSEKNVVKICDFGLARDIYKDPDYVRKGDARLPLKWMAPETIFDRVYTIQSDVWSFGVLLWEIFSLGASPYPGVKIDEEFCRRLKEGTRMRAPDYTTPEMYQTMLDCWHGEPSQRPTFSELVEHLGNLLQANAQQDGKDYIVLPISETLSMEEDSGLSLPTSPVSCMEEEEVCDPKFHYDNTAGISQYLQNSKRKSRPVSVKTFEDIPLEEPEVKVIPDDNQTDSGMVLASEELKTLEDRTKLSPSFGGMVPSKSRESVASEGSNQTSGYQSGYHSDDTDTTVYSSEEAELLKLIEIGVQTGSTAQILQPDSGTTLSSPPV

MIAPaCa-2 = test: Antiproliferation MTS assay, pancreatic cancer cells; assay type: cell-based; settings: Homo sapiens
JNK1 = JNK1 (Homo sapiens, UniProt P45983); test: Kinase panel (Novartis); assay type: biochemical
CDK2/A = CDK2/A (Homo sapiens, UniProt P24941); test: Kinase panel (Novartis); assay type: biochemical
PDK1 = target: T2, PDK1 (Homo sapiens, UniProt O15530); test: Kinase panel (Novartis); assay type: biochemical
T2 sequence (O15530 1-556): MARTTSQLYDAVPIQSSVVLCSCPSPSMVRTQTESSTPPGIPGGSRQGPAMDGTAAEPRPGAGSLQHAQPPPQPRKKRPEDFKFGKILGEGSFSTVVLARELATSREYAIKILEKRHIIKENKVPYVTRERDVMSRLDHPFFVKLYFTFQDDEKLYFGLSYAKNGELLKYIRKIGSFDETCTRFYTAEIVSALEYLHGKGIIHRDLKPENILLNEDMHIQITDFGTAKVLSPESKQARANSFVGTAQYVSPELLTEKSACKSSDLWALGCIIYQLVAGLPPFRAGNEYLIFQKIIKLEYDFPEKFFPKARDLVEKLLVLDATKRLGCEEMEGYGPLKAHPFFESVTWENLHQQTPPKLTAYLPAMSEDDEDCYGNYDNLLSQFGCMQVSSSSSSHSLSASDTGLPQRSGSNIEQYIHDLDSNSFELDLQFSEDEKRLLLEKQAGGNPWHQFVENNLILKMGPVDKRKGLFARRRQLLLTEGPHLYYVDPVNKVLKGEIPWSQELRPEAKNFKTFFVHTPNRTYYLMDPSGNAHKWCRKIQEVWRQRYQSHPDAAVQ

IGF-1R = IGF-1R (Homo sapiens, UniProt P08069); test: Kinase panel (Novartis); assay type: biochemical
Sequence of IGF-1R (P08069 31-1367, species assumed): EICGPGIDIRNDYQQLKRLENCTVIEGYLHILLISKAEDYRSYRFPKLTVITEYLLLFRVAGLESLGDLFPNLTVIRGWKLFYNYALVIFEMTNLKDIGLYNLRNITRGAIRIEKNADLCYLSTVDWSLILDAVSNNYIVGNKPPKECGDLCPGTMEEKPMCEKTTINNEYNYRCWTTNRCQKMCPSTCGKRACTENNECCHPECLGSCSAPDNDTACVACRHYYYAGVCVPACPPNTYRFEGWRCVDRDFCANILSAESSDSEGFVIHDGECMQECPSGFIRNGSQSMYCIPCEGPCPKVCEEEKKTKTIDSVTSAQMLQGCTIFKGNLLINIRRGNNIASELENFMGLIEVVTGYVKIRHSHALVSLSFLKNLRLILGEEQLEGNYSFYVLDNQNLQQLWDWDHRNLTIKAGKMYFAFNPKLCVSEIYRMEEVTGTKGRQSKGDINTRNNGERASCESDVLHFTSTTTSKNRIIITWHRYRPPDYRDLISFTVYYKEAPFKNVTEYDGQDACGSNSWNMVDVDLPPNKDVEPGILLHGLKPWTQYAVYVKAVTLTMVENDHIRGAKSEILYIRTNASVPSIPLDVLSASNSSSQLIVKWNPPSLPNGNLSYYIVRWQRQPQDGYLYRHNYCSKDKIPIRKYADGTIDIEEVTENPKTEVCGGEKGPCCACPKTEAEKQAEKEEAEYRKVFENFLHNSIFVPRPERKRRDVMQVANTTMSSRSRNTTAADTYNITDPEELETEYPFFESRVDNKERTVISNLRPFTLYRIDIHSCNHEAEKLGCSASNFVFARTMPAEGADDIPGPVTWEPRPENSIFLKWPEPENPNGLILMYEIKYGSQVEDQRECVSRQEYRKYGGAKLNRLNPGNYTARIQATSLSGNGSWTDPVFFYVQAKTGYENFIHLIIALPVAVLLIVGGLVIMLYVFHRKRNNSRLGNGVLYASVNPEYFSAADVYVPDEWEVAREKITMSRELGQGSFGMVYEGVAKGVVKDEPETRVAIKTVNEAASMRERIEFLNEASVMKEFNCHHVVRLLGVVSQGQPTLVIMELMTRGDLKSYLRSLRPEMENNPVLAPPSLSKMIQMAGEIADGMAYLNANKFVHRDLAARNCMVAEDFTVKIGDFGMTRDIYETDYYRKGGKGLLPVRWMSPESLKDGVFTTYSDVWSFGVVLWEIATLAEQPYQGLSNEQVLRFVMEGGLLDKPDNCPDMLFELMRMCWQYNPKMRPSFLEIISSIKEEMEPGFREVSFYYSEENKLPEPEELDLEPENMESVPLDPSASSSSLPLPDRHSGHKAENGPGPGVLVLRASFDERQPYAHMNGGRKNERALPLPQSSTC

c-Met = c-Met (Homo sapiens, UniProt P08581); test: Kinase panel (Novartis); assay type: biochemical

SMILES: COc1cccc2c(C3=C(c4cn(C)c5cc(Cl)c(F)cc45)C(=O)NC3=O)coc12 [Compound 15, 3-(6-Chloro-5-fluoro-1-methyl-1H-indol-3-yl)-4-(7-methoxy-benzofuran-3-yl)-pyrrole-2,5-dione]
- IC50 [1]: 260 ± 32 nM
- IC50 (CDK-1/cyclinB): 46.2 µM
- Neuroprotection against MPP+ (percent cell recovery, FIG. 2) [2]: neuroprotection of the cells
- IC50 (CDK-2/cyclinA): 27.2 µM
- IC50 (CDK-9/cyclinT1): > 100 µM
- IC50 (CDK-3/cyclinE): > 100 µM
- IC50 (CDK-5/P35): 61.6 µM
- IC50 (SKOV3): 42.7 µM
- IC50 (OVCA432): 10.7 µM
- IC50 (CDK-6/cyclinD3): 165 µM
- IC50 (CDK-2/cyclinE): 99000 nM
- IC50 (CDK-5/P25): 108 µM
- IC50 (CDK-4/cyclinD1): 59.5 µM

SMILES: Cn1cc(C2=C(c3coc4ccccc34)C(=O)NC2=O)c2cc(Br)ccc21 [Compound 19, 3-Benzofuran-3-yl-4-(5-bromo-1-methyl-1H-indol-3-yl)-pyrrole-2,5-dione]
- IC50 (Flt-3): > 10 µM
- IC50 (c-Abl-T3151): > 10 µM
- IC50 (JAK-2): > 10 µM
- IC50 (HupT3): 43 ± 6.3 µM
- Inhibition of hyperactivity produced by amphetamine/chlordiazepoxide (locomotor activity) (C57BL/6J mice): inhibited the hyperactivity
- IC50 (Ret): > 10 µM
- IC50 (EphB4): > 10 µM
- IC50 (b-Raf-V599E): > 10 µM
- IC50 (c-Abl): > 10 µM
- IC50 (FAK): > 10 µM
- IC50 (PKCα): 61.4 µM
- IC50 (Tek): > 10 µM
- IC50 (SKOV3): 74.5 µM
- IC50 (OVCA432): 33.6 µM
- Ability to pass the brain-blood barrier [3]: ability to pass the brain-blood barrier
- IC50 (Axl): > 10 µM
- IC50 (HER-1): > 10 µM
- IC50 (FGFR-3-K650E): > 10 µM
- IC50 (c-src): > 10 µM
- IC50 (KDR): > 10 µM
- IC50 (MIAPaCa-2; MIA PaCa-2, as reported in Gaisina et al. (2009) J. Med. Chem. 52(7), 1853-1863): 30 ± 2.2 µM
- IC50 (MIAPaCa-2; MIA PaCa-2, 72 hrs, MTS): 30 µM
- IC50 (JNK1): > 10 µM
- IC50 (CDK2/A): 3.98 µM
- Ki (CDK2/A): 189 nM
- IC50 (PDK1): > 10 µM
- IC50 (IGF-1R): > 10 µM
- IC50 (c-Met): > 10 µM
